The source of these data is patent US12115256B2, “Targeted liposomal gemcitabine and methods thereof” (L.E.A.F. HOLDINGS GROUP LLC, priority 2016, dated 2024).

Where two headings read alike, the source gives them in different places.

For one data set, the target named is Folate receptor α (FRα) (Homo sapiens, UniProt P15328). The conditions noted are these: read-out: Binding affinity, Kd; cited from earlier work.
The target in data set [1] is T1, Reduced folate carrier (RFC) (Homo sapiens, UniProt P41440).
T1 sequence (P41440 1-591): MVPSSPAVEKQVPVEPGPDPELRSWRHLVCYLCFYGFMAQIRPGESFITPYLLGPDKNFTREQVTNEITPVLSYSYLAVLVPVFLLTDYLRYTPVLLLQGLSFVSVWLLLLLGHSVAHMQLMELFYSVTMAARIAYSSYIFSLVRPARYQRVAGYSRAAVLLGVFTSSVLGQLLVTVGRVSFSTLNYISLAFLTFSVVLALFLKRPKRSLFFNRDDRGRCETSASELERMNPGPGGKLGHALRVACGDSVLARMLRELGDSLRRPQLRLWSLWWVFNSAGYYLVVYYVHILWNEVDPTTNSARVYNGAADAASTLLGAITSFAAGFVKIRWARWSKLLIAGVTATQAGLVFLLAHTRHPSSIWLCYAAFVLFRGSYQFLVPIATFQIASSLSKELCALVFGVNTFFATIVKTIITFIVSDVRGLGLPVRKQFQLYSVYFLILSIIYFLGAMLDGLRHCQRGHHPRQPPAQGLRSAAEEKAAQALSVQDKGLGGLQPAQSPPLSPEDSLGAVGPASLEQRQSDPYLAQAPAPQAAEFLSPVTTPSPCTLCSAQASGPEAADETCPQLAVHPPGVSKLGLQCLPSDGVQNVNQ
Particulars: read-out: Binding affinity, Km; cited from earlier work.

For data set [2], the system named is SKBR3 breast cancer cells. Nature of the data set: MTS cell proliferation assay, SKBR3. The data set is classed as cell-based. The conditions noted are these: Homo sapiens, SK-BR-3, 96 h, 4 days. The text has this:
(§1) Cells lines used in the experiments are commercially available from sources such as the ATCC (American Type Culture Collection of Manassas, Virginia, U.S.A). The cell lines, their ATCC accession numbers and growth conditions are listed below. • NCI-H2452 (ATCC® CRL-5946TH); RPMI-1640 (Cat. #30-2001); 10% HI FBS; 1% Pen/Strep; 1% L-Glutamine. • PANC-1 (ATCC® CRL-1469TH); Dulbecco's Modified Eagle's Medium (DMEM) (ATCC® 30-2002TM) 10% HI FBS; 1% Pen/Strep; 1% L-Glutamine • SKBR3; McCoy 5A Medium; 10% HI FBS; 1% Pen/Strep; 1% L-Glutamine.
(§2) Cancer cell lines were seeded in 96 well plates on day 0 at optimal cell numbers. On day 1, drug formulations were added at 2-fold serial dilutions. The cells were incubated for 3-5 days and the level of inhibition of cellular proliferation was measured by the MTS assay (3-(4,5-dimethylthiazol-2-yl)-5-(3-carboxymethoxyphenyl)-2-(4-sulfophenyl)-2H-tetrazolium assay). The commercially available MTS Cell Proliferation Assay Kit (Colorimetric) (197010) is a colorimetric sensitive quantification of viable cells in proliferation and cytotoxicity assay. […]
(§3) On day 4, the effect on cellular proliferation was measured with MTS assay. […] The plates were incubated for 2 hours at 37° C. and the absorbance was measured at 490 nm. […]
(Formazan colour is commonly taken as a measure of viable cells.)

Data set [3] relates to PANC-1 pancreatic cancer cells. Put plainly: MTS cell proliferation assay, PANC-1. The class given is cell-based. The conditions noted are these: Homo sapiens, 96 h, 4 days.
Source text: as §1, §2, §3

Data set [4] concerns HPAF-II pancreatic cancer cells. Nature of the data set: MTS cell proliferation assay, HPAF-II. The data set is classed as cell-based. Particulars: Homo sapiens, 96 h, 4 days. As for the experimental part:
HPAF-II ATCC CRL-1997; Eagle's Minimum Essential Medium (EMEM) (ATCC® 30-2003Tm)); 10% HI FBS; 1% Pen/Strep; 1% L-Glutamine.
Cancer cell lines were seeded in 96 well plates on day 0 at optimal cell numbers. On day 1, drug formulations were added at 2-fold serial dilutions. The cells were incubated for 3-5 days and the level of inhibition of cellular proliferation was measured by the MTS assay (3-(4,5-dimethylthiazol-2-yl)-5-(3-carboxymethoxyphenyl)-2-(4-sulfophenyl)-2H-tetrazolium assay). The commercially available MTS Cell Proliferation Assay Kit (Colorimetric) (197010) is a colorimetric sensitive quantification of viable cells in proliferation and cytotoxicity assay. The assay is based on the reduction of MTS tetrazolium compound by viable cells to generate a colored formazan product that is soluble in cell culture media.
The MTS experiments are performed as follows: The night before, the cells are seeded according to the amount of cells required for each cell line in 96 well tissue culture plate. Final volume in each well is 100 μL (see Table of cell lines for reference; all cell lines obtained from ATCC).
The seeded cells are incubated at 37° C. and 5% CO 2 overnight. […]
as §3

The test system of data set [5] is NCI-H2452 lung (mesothelioma) cancer cells. Put plainly: MTS cell proliferation assay, NCI-H2452. The class given is cell-based. Particulars: Homo sapiens, 96 h, 4 days, MTS (FIG. 2).
Source text: as §1, §2, §3

For data set [6], the system named is CD34+ stem cells (hematopoietic progenitor cells) differentiating into neutrophils. The class given is cell-based. Particulars: human, 2 days. The text has this:
The level of a molecule called CD15 is elevated on more mature neutrophils. This molecule is elevated on cells in the circles drawn on the plots.
FIG. 8. Neutrophil differentiation assay. One of the major side effects from gemcitabine treatment is the reduction of neutrophils in the bloodstream that counter infections. This is the result of CD34+ stem cells not differentiating, or developing, into mature neutrophils in the bone marrow. We measured the effect of targeted liposomal gemcitabine on neutrophil differentiation compared to the same dose of gemcitabine (10 and 50 μM.) Hematopoietic progenitor cells (CD34+) were purchased and treated with a panel of growth factors to induce neutrophil differentiation.
CD34+ stem cells were cultured without (A) or with (B) cytokines (growth factors) that induce neutrophil differentiation in vitro, including stem cell factor, IL-3, and […] for 2 days. […] By day 2, there is a dramatic increase in mature neutrophils depicted in the oval. […] The cells within the drawn gate (FIG. 8B) are larger, more complex maturing neutrophils that are lacking in FIG. 8A.
In more detail, experiments were performed as follows: CD34+ stem cells were obtained from ATCC. CD34+ cells were thawed at 37° C. for 1 minute. While on ice, the cells were transferred to cold stem cell medium (“StemSpan SFEM”—Stem Cell Tech. cat. #9650), 10% heat […] fetal bovine serum (HI FBS.) Each vial contained approximated 5×10^5 cell/ml. The cells were placed in 96 well tissue culture plates 35,000 cell/well.
The neutrophils GROWTH media contained 100 ng/ml of stem cell factor human (SCF-Sigma H8416, lot #MKBT8036V), 20 ng/ml of granulocyte colony-stimulation factor, human (G-CSF-Sigma H5541, lot #SLBC9602V), 10 ng/ml of IL3 recombinant human (Sigma SRP3090, lot #1008AFC13) in StemSpam media as above.
The cells were also treated as follows 1) StemSpam media alone with no growth cytokines; 2) StemSpam media+growth cytokines, and 3) Gemcitabine, Targeted Liposomal Gemcitabine and non-Targeted Liposomal Gemcitabine in amounts as indicated. […]

Chain of Folate receptor α (FRα) (P15328 25-234, species assumed): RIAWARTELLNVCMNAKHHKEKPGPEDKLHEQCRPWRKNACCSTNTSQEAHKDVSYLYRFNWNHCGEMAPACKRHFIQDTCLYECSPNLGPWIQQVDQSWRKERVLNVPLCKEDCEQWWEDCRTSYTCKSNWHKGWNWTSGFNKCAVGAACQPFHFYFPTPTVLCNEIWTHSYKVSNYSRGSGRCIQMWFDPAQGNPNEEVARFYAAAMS

`CN1c2c(nc(N)[nH]c2=O)NCC1CNc1ccc(C(=O)N[C@@H](CCC(=O)O)C(=O)O)cc1` (some centres unmarked) [5-mTHF, 5-methyltetrahydrofolate]: the dissociation constant (Kd) on Folate receptor α (FRα) was 1 to 10 nM. Moreover, the Michaelis constant (Km) in data set [1] was 1 to 10 µM.

Regarding `Nc1ccn([C@@H]2O[C@H](CO)[C@@H](O)C2(F)F)c(=O)n1` [Gemcitabine, gemcitabine], the IC50 in data set [2] was 297 µM; in data set [3], 11 µM; in data set [4] it was 9.11 µM; in data set [5] it was 30.4 µM. In addition, the “Number of live cells within the neutrophil gate (CD15+)” value in data set [6] is “less than 100”. Moreover, the “Percentage of live cells within the neutrophil gate” value in data set [6] (10 μM) is “less than 5%”; in data set [6] (50 μM), “less than 20%”.

As to `CN(Cc1cnc2nc(N)nc(N)c2n1)c1ccc(C(=O)N[C@@H](CCC(=O)O)C(=O)O)cc1` [methotrexate], in data set [1], the Michaelis constant (Km) was 1 to 5 µM.

As to `Nc1nc2ncc(CNc3ccc(C(=O)N[C@@H](CCC(=O)O)C(=O)O)cc3)nc2c(=O)[nH]1` [folic acid], the Km in data set [1] was 200 to 400 µM.

For orientation: Kd means the free concentration of one partner at which half of the binding sites on the other are occupied at equilibrium, for simple one-to-one binding. For orientation: Km means the concentration of substrate that gives half-maximal velocity. What is called IC50 is the midpoint of a concentration-inhibition curve. High values mean weaker potency, low ones greater potency.
